Experiments:
[1] = Inhibitory activity against Staphylococcus aureus tyrosyl tRNA synthetase (YRS) using aminoacylation assay; NI = No inhibition
[2] = Inhibitory activity against Staphylococcus aureus tyrosyl tRNA synthetase (YRS) using aminoacylation assay
[3] = Inhibitory activity (3 uM) against Staphylococcus aureus tyrosyl tRNA synthetase (YRS) using aminoacylation assay

N[C@@H](Cc1ccc(O)cc1)C(=O)NC(C(=O)O)[C@@H]1O[C@H](CO)[C@@H](O)[C@H](O)[C@H]1O (stereo partly drawn)
IC50 [1]: Not Active

N[C@@H](Cc1ccc(O)cc1)C(=O)N[C@H](C(=O)O)[C@@H]1OC[C@H](O)[C@H](O)[C@H]1O
IC50 [2]: 100 nM

N[C@@H](Cc1ccc(O)cc1)C(=O)N[C@H](C(=O)O)[C@@H]1OC[C@H](O)[C@@H](O)[C@H]1O
inhibition [3]: 71%

— ChEMBL document CHEMBL1134225, “Potent synthetic inhibitors of tyrosyl tRNA synthetase derived from C-pyranosyl analogues of SB-219383” (Bioorg Med Chem Lett, 2001)
